{"source": "paper PMC12040169", "about": "(PLOS Biology, 2025)", "data": [{"test": "in vitro", "conditions": "human, hela cells, % viability", "units": {"viability at 28.5 h, 10 µM": "%"}, "values": [{"smiles": "c1ccc(-c2cn3ccnc3c(N3CCN(c4ccncc4)CC3)n2)cc1", "note": "[CBK066177]", "viability at 28.5 h, 10 µM": 110}, {"smiles": "O=C(CN1CCN(c2ccc(C(F)(F)F)cn2)CC1)Nc1ccc2c(c1)OCO2", "note": "[CBK074680]", "viability at 28.5 h, 10 µM": 102}, {"smiles": "Cc1cc(C)nc(NCc2cnn(C)c2C)n1", "note": "[CBK306276]", "viability at 28.5 h, 10 µM": 88.1}, {"smiles": "CC(Sc1nc2ccc(F)cc2c(=O)[nH]1)C(=O)N1CCOCC1", "note": "(centres unmarked) [CBK305958]", "viability at 28.5 h, 10 µM": 108}, {"smiles": "CCN(CC)C(=O)C1CCCN(C(=O)NCc2cnc(C)cn2)C1", "note": "(centres unmarked) [CBK156122]", "viability at 28.5 h, 10 µM": 101}, {"smiles": "O=C(C1=C(O)C(=O)N(CCCn2ccnc2)C1c1cccc([N+](=O)[O-])c1)c1cccs1", "note": "(centres unmarked) [CBK264591]", "viability at 28.5 h, 10 µM": 95.9}, {"smiles": "Cn1ncc(N2CCN(C(=O)CCCOc3ccccc3)CC2)cc1=O", "note": "[CBK306937]", "viability at 28.5 h, 10 µM": 84.2}, {"smiles": "Cc1oc2ccc(O)cc2c1C(=O)NC(C)(C)CN1CCCC(C)C1", "note": "(centres unmarked) [CBK282601]", "viability at 28.5 h, 10 µM": 105}, {"smiles": "O=C1c2ccccc2NC(C(=O)O)(c2ccccc2)N1c1ccccc1Cl", "note": "(centres unmarked) [CBK287169]", "viability at 28.5 h, 10 µM": 81}, {"smiles": "O=C(NCc1ccccc1)C(Cc1ccc([N+](=O)[O-])cc1)N1C(=O)c2ccccc2C1=O", "note": "(centres unmarked) [CBK261279]", "viability at 28.5 h, 10 µM": 95.9}, {"smiles": "CCn1c2ccccc2n2c(SCC(=O)O)nnc12", "note": "[CBK266869]", "viability at 28.5 h, 10 µM": 91.4}, {"smiles": "CCOc1ccccc1NC(=O)C(C)Oc1ccc(OC)cc1", "note": "(centres unmarked) [CBK266648]", "viability at 28.5 h, 10 µM": 39.6}, {"smiles": "CC(Sc1nc2ccccc2[nH]1)C(=O)O", "note": "(centres unmarked) [CBK263063]", "viability at 28.5 h, 10 µM": 101}, {"smiles": "Cc1ccc(C2CCCN2C(=O)c2cccn(CC(=O)Nc3ccc(F)cc3)c2=O)cc1C", "note": "(centres unmarked) [CBK286528]", "viability at 28.5 h, 10 µM": 90.1}, {"smiles": "Cc1cc(Cl)cc(Cl)c1S(=O)(=O)Nc1nc(CC(=O)O)cs1", "note": "[CBK000573]", "viability at 28.5 h, 10 µM": 92}, {"smiles": "CCOc1cccc(-c2cn3ccnc3c(NCCc3ccccn3)n2)c1", "note": "[CBK066586]", "viability at 28.5 h, 10 µM": 94.4}, {"smiles": "Fc1ccc2c(c1)[C@@H](Oc1cncc(NC3CCCNC3)n1)CCO2", "note": "(some centres unmarked) [CBK172256G]", "viability at 28.5 h, 10 µM": 92.6}, {"smiles": "COc1ccc(Cn2c(C)nc3c([N+](=O)[O-])c(C)c(C)cc32)cc1", "note": "[CBK115370]", "viability at 28.5 h, 10 µM": 102}, {"smiles": "Fc1ccc(C2CCc3n[nH]cc3C2)cc1", "note": "(centres unmarked) [CBK015957C]", "viability at 28.5 h, 10 µM": 92}, {"smiles": "O=C(Nc1cccc2ccccc12)C1CCCN1S(=O)(=O)c1ccc(F)cc1", "note": "(centres unmarked) [CBK138924]", "viability at 28.5 h, 10 µM": 97.8}, {"smiles": "O=C(c1nccs1)C1CCN(C(=O)Cc2ccsc2)CC1", "note": "[CBK284176]", "viability at 28.5 h, 10 µM": 95.5}, {"smiles": "OCCN(CCO)c1ccccc1N(CCO)CCO", "note": "[CBK009141]", "viability at 28.5 h, 10 µM": 85.7}, {"smiles": "CCCc1ccc(N(C)C(=O)c2ccc(OCC)cc2)cc1", "note": "[CBK161615]", "viability at 28.5 h, 10 µM": 107}, {"smiles": "CCOc1cc(NC2CCN(C(=O)C3(CC(C)C)CCC3)CC2)ncn1", "note": "[CBK304136]", "viability at 28.5 h, 10 µM": 105}, {"smiles": "COc1ccc(NC(=S)NC(=O)c2cc3c(C)nn(-c4ccccc4)c3s2)cc1[N+](=O)[O-]", "note": "[CBK265324]", "viability at 28.5 h, 10 µM": 102}, {"smiles": "O=C(NC[C@H]1CC[C@H](c2nnc(-c3ccsc3)o2)CC1)C1CC1", "note": "[CBK283361]", "viability at 28.5 h, 10 µM": 85.5}, {"smiles": "O=C(CCn1c(C(F)F)cc2cccnc21)N1CCOCC1", "note": "[CBK284956]", "viability at 28.5 h, 10 µM": 101}, {"smiles": "O=S(=O)(Nc1cccc2ncccc12)c1ccc(OC(F)(F)F)cc1", "note": "[CBK044490]", "viability at 28.5 h, 10 µM": 112}, {"smiles": "O=C(Cc1ccccc1)N(Cc1ccco1)C1CCN(c2ccc3c(c2)OCCO3)CC1", "note": "[CBK286529]", "viability at 28.5 h, 10 µM": 106}, {"smiles": "Cc1cc(C(F)(F)F)nc2c(OCCOc3nccnc3N3CCNCC3)cnn12", "note": "[CBK024195C]", "viability at 28.5 h, 10 µM": 96.1}, {"smiles": "COc1ccc2cc(C(=O)N3Cc4cnn(CCO)c4C3)n(C)c2c1", "note": "[CBK306707]", "viability at 28.5 h, 10 µM": 94.5}, {"smiles": "CCN1C(=O)CC2(C1=O)C(=O)N(CC)c1ccc(C)cc12", "note": "(centres unmarked) [CBK075140]", "viability at 28.5 h, 10 µM": 99.4}, {"smiles": "COc1ccc(C(NC(=O)[C@H]2CCCN2C(=O)Cc2cccs2)c2ccccc2C)cn1", "note": "(some centres unmarked) [CBK075053]", "viability at 28.5 h, 10 µM": 87}, {"smiles": "COc1cc(C2NC(=O)NC(O)(C(F)(F)F)C2C(=O)c2ccccc2)ccc1OCc1ccccc1", "note": "(centres unmarked) [CBK264957]", "viability at 28.5 h, 10 µM": 114}, {"smiles": "Cc1n[nH]cc1CN(C)c1cc([C@H]2C[C@@H](N)C2)nc(C2CC2)n1", "note": "[CBK307544]", "viability at 28.5 h, 10 µM": 110}, {"smiles": "CCOC(=O)c1sc2nc(C(C)N3CCOCC3)[nH]c(=O)c2c1C", "note": "(centres unmarked) [CBK305862]", "viability at 28.5 h, 10 µM": 82.5}, {"smiles": "Cc1ccc(C)c(CC(=O)N(CCC(=O)O)C2CCOCC2)c1", "note": "[CBK305469]", "viability at 28.5 h, 10 µM": 92.3}, {"smiles": "CCOC(=O)c1c(-c2ccccc2)oc2ccc(OCC(=O)NN)cc12", "note": "[CBK263826]", "viability at 28.5 h, 10 µM": 91.8}, {"smiles": "O=S(=O)(CC(F)(F)F)Nc1ccc(-c2nnn[nH]2)cc1", "note": "[CBK154754]", "viability at 28.5 h, 10 µM": 107}, {"smiles": "Nc1c(C(=O)NCc2ccccc2)c2nc3ccccc3nc2n1CCO", "note": "[CBK267201]", "viability at 28.5 h, 10 µM": 108}, {"smiles": "COc1ccccc1-c1ncc(OC2CCN(C)C2)nc1N", "note": "(centres unmarked) [CBK145081]", "viability at 28.5 h, 10 µM": 92.4}, {"smiles": "Cc1cccc(CSc2nnc(C(C)NC(=O)c3ccccc3F)n2C)c1", "note": "(centres unmarked) [CBK269732]", "viability at 28.5 h, 10 µM": 91.6}, {"smiles": "CC(NC(=O)C1CCN(CCOc2ccc(F)cc2)CC1)c1cccc2ccccc12", "note": "(centres unmarked) [CBK148634]", "viability at 28.5 h, 10 µM": 93.6}, {"smiles": "COc1ccc(C(=O)c2sc3nc(C)c(C)c(C)c3c2N)cc1OC", "note": "[CBK074427]", "viability at 28.5 h, 10 µM": 72.7}]}]}
